Measurements from patent US12686692B2, “KRas G12D inhibitors” (Mirati Therapeutics, Inc., priority 2020, dated 2026).

Legend:
KRas G12D [1] = molecular target: T1, KRas G12D (Homo sapiens, UniProt P01116, G12D); assay: KRas G12D Surface Plasmon Resonance (SPR) Binding Assay; settings: Biacore T200, biotinylated Avidin-tagged KRAS protein on SA chip, 20 C, 1:1 binding model
In short: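 Biotinylated Avi-tagged KRAS G12D was captured on a streptavidin chip; compounds were injected as 3-fold dilution series in HBS-Mg buffer, pH 7.5, with DMSO at 20 C (60 s contact, 120 s dissociation). Binding constants came from 1:1 model fits.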
Target sequence in this assay (P01116 1-188 isoform P01116-2 G12D): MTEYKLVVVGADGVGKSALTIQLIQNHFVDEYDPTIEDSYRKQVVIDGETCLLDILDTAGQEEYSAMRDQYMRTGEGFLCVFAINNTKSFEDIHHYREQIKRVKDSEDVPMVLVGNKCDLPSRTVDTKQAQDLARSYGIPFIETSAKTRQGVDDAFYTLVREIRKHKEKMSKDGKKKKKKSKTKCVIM

KRas G12D [2] = molecular target: T1, KRas G12D; assay: KRas G12D Binding Assay (TR-FRET displacement of labeled tracer); parameters: corresponding to amino acids 1:169, produced at Array BioPharma; biotin (protein is biotinylated); settings: TR-FRET displacement of Cy5 labelled tracer, biotinylated GDP-loaded KRAS G12D (aa 1:169), 60 minute incubation at 22° C.
In short: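 Biotinylated GDP-loaded human KRAS G12D (aa 1–169) incubated with Cy5 tracer, Eu-streptavidin and compound (2% DMSO final) in 50 mM HEPES pH 7.5, 5 mM MgCl2, 0.005% Tween-20, 1 mM DTT, 60 min at 22 °C. TR-FRET ratio converted to percent of control; IC50 at 50 POC from 4-parameter logistic fit.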
Target sequence in this assay (P01116 1-169 isoform P01116-2 G12D): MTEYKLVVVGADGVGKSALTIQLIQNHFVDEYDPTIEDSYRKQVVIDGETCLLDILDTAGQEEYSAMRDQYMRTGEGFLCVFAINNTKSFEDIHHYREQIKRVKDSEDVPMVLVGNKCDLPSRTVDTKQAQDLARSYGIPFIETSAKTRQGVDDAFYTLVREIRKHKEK

[3] = test system: KRas G12D-mediated Phosphorylation of ERK; assay: Inhibition of KRas G12D-mediated Phosphorylation of ERK in AGS cells; type: cell-based; settings: Homo sapiens; AGS cells expressing G12D, 3 hours, phospho-ERK normalized to GAPDH
In short: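 AGS cells (endogenous KRas G12D) were treated with compounds for 3 h in 0.5% DMSO, then fixed, permeabilized and immunostained. The phospho-ERK (Thr202/Tyr204) signal was normalized to GAPDH in-cell by infrared detection and expressed as % of DMSO control. IC50 came from a 4-parameter fit.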

SMILES | Kd (KRas G12D [1]) | IC50 (KRas G12D [2]) | IC50 [3]
CO[C@@H]1C[C@@H]2CN(c3nc(OCC45CCCN4CC(F)C5)nc4c3CCN(c3cccc5cccc(Cl)c35)C4)C[C@H]1N2 (mixture of isomers) [Example 43, 7-(8-chloronaphthalen-1-yl)-2-((2-fluorotetrahydro-1H-pyrrolizin-7a(5H)-yl)methoxy)-4-((1R,5R,6R)-6-methoxy-3,8-diazabicyclo[3.2.1]octan-3-yl)-5,6,7,8-tetrahydropyrido[3,4-d]pyrimidine] | 0.0576 µM | 0.0901 µM | > 16.7 µM
Cc1cccc(N2CCc3c(nc(OCC45CCCN4CCC5)nc3N3C[C@H]4CC[C@@H](C3)N4)C2)c1C(F)(F)F [Example 64, 4-((1R,5S)-3,8-diazabicyclo[3.2.1]octan-3-yl)-7-(3-methyl-2-(trifluoromethyl)phenyl)-2-((tetrahydro-1H-pyrrolizin-7a(5H)-yl)methoxy)-5,6,7,8-tetrahydropyrido[3,4-d]pyrimidine] | 0.0673 µM | 0.013 µM | > 16.7 µM
CN1CCC[C@H]1COc1nc2c(c(N3C[C@H]4CC[C@@H](C3)N4)n1)CCN(c1cccc3cccc(Cl)c13)C2 [Example 2, 4-((1R,5S)-3,8-diazabicyclo[3.2.1]octan-3-yl)-7-(8-chloronaphthalen-1-yl)-2-(((S)-1-methylpyrrolidin-2-yl)methoxy)-5,6,7,8-tetrahydropyrido[3,4-d]pyrimidine] | 0.163 µM | 0.267 µM | 16.1 µM
Oc1cc(N2CCc3c(nc(OCC45CCCN4CCC5)nc3N3C[C@H]4CC[C@@H](C3)N4)C2)c2ccccc2c1 [Example 31, 4-(4-((1R,5S)-3,8-diazabicyclo[3.2.1]octan-3-yl)-2-((tetrahydro-1H-pyrrolizin-7a(5H)-yl)methoxy)-5,8-dihydropyrido[3,4-d]pyrimidin-7(6H)-yl)naphthalen-2-ol] | 0.0008 µM | 0.0038 µM | 1.61 µM
CN1CCC[C@H]1COc1nc2c(c(N3CC4CC(F)C(C3)N4)n1)CCN(c1cc(O)cc3ccccc13)C2 (stereo partly drawn) [Example 38, 4-(4-(6-fluoro-3,8-diazabicyclo[3.2.1]octan-3-yl)-2-(((S)-1-methylpyrrolidin-2-yl)methoxy)-5,8-dihydropyrido[3,4-d]pyrimidin-7(6H)-yl)naphthalen-2-ol] | 2.34 µM | 0.0735 µM | 5 µM
FC1CN2CCCC2(COc2nc3c(c(N4CC5CC(F)C(C4)N5)n2)CCN(c2cccc4cccc(Cl)c24)C3)C1 (racemic) [Example 44, 7-(8-chloronaphthalen-1-yl)-4-(6-fluoro-3,8-diazabicyclo[3.2.1]octan-3-yl)-2-((2-fluorotetrahydro-1H-pyrrolizin-7a(5H)-yl)methoxy)-5,6,7,8-tetrahydropyrido[3,4-d]pyrimidine] | 0.0439 µM | 0.0435 µM | 9.03 µM
CN1CCC[C@H]1COc1nc2c(c(N3C[C@@H]4C[C@@H](O)[C@H](C3)N4)n1)CCN(c1cccc3cccc(Cl)c13)C2 [Example 95, (1S,5S,6R)-3-(7-(8-chloronaphthalen-1-yl)-2-(((S)-1-methylpyrrolidin-2-yl)methoxy)-5,6,7,8-tetrahydropyrido[3,4-d]pyrimidin-4-yl)-3,8-diazabicyclo[3.2.1]octan-6-ol] | 0.0583 µM | 0.0506 µM | > 16.7 µM
CN1CCC[C@H]1COc1nc2c(c(N3C[C@H]4CC[C@@H](C3)N4)n1)CCN(c1cc(O)cc3cccc(Cl)c13)C2 [Example 28, 4-(4-((1R,5S)-3,8-diazabicyclo[3.2.1]octan-3-yl)-2-(((S)-1-methylpyrrolidin-2-yl)methoxy)-5,8-dihydropyrido[3,4-d]pyrimidin-7(6H)-yl)-5-chloronaphthalen-2-ol] | > 1000 µM | 0.0012 µM | 0.361 µM
CN1CCC[C@H]1COc1nc2c(c(N3C[C@@H]4C[C@H](O)[C@H](C3)N4)n1)CCN(c1cc(O)cc3ccccc13)C2 (single isomer, unassigned) [Example 55] | 38.7 µM | 0.775 µM | 4.88 µM
CN1CCC[C@H]1COc1nc2c(c(N3C[C@H]4CC[C@@H](C3)N4)n1)CCN(c1cc(O)c(Cl)c3ccccc13)C2 [Example 24, 4-(4-((1R,5S)-3,8-diazabicyclo[3.2.1]octan-3-yl)-2-(((S)-1-methylpyrrolidin-2-yl)methoxy)-5,8-dihydropyrido[3,4-d]pyrimidin-7(6H)-yl)-1-chloronaphthalen-2-ol] | 0.0377 µM | 1.36 µM | > 16.7 µM
Fc1ccc2cccc(N3CCc4c(nc(OCC56CCCN5CCC6)nc4N4C[C@H]5CC[C@@H](C4)N5)C3)c2c1Cl [Example 62, 4-((1R,5S)-3,8-diazabicyclo[3.2.1]octan-3-yl)-7-(8-chloro-7-fluoronaphthalen-1-yl)-2-((tetrahydro-1H-pyrrolizin-7a(5H)-yl)methoxy)-5,6,7,8-tetrahydropyrido[3,4-d]pyrimidine] | 0.0081 µM | 0.001 µM | 1.94 µM
CN1CCC[C@H]1COc1nc2c(c(N3C[C@H]4C[C@@H](O)[C@@H](C3)N4)n1)CCN(c1cc(O)cc3ccccc13)C2 (single isomer, unassigned) [Example 54] | 501 µM | 0.0411 µM | 1.13 µM
Clc1cccc2cccc(N3CCc4c(nc(OCC56CCCN5CCC6)nc4N4C[C@H]5CC[C@@H](C4)N5)C3)c12 [Example 29, 4-((1R,5S)-3,8-diazabicyclo[3.2.1]octan-3-yl)-7-(8-chloronaphthalen-1-yl)-2-((tetrahydro-1H-pyrrolizin-7a(5H)-yl)methoxy)-5,6,7,8-tetrahydropyrido[3,4-d]pyrimidine] | 0.0063 µM | 0.0025 µM | 4.05 µM
CN1CCC[C@H]1COc1nc2c(c(N3C[C@H]4CC[C@@H](C3)N4)n1)CCN(c1cc(O)cc3ccccc13)C2 [Example 1, 4-(4-((1R,5S)-3,8-diazabicyclo[3.2.1]octan-3-yl)-2-(((S)-1-methylpyrrolidin-2-yl)methoxy)-5,8-dihydropyrido[3,4-d]pyrimidin-7(6H)-yl)naphthalen-2-ol] | 0.11 µM | 0.0489 µM | 2.35 µM
FC(F)(F)c1c(Cl)cccc1N1CCc2c(nc(OCC34CCCN3CCC4)nc2N2C[C@H]3CC[C@@H](C2)N3)C1 [Example 63, 4-((1R,5S)-3,8-diazabicyclo[3.2.1]octan-3-yl)-7-(3-chloro-2-(trifluoromethyl)phenyl)-2-((tetrahydro-1H-pyrrolizin-7a(5H)-yl)methoxy)-5,6,7,8-tetrahydropyrido[3,4-d]pyrimidine] | 0.0123 µM | 0.0051 µM | 6.58 µM
CN1CCC[C@H]1COc1nc2c(c(N3C[C@H]4CC(CCO)[C@@H](C3)N4)n1)CCN(c1cccc3cccc(Cl)c13)C2 (stereo partly drawn) [Example 91, 2-((1R,5S)-3-(7-(8-chloronaphthalen-1-yl)-2-(((S)-1-methylpyrrolidin-2-yl)methoxy)-5,6,7,8-tetrahydropyrido[3,4-d]pyrimidin-4-yl)-3,8-diazabicyclo[3.2.1]octan-6-yl)ethan-1-ol] | 0.176 µM | 0.0784 µM | > 16.7 µM
Clc1cccc2cncc(N3CCc4c(nc(OCC56CCCN5CCC6)nc4N4C[C@H]5CC[C@@H](C4)N5)C3)c12 [Example 30, 4-((1R,5S)-3,8-diazabicyclo[3.2.1]octan-3-yl)-7-(5-chloroisoquinolin-4-yl)-2-((tetrahydro-1H-pyrrolizin-7a(5H)-yl)methoxy)-5,6,7,8-tetrahydropyrido[3,4-d]pyrimidine] | 0.0871 µM | 0.0168 µM | 2.61 µM
